Measurements: US20190321417A1, “BACTERIAL PROBIOTIC TO DETOXIFY HERBICIDES AND INSECTICIDES” (PRESIDENT AND FELLOWS OF HARVARD COLLEGE, priority 2018, published 2019)

Key:
Nasonia [1] = assay: Herbicide toxicity (LC50) in adult Nasonia from generationally-atrazine exposed and naïve populations; type: in vivo, Nasonia virtipennis; conditions: 24 hr old adults
Description: (§1) FIGS. 3A-3C present data that show atrazine resistance. (FIG. 3A) The median lethal concentration of atrazine to kill half of the population (LC50) in ppm for each generation of the Naïve populations (open circles) and the Atrazine exposed populations (black circles). (FIG. 3B) The median lethal concentration of atrazine to kill half of the population (LC50) in ppm for each generation of the Naïve populations (open circles) and the Atrazine exposed populations (black circles) when grown Germfree, gnotobiotic. Without bacteria, both populations experience increased toxicity of atrazine, over 100 fold greater than normal generations' LC50. (FIG. 3C) LC50 survival of 24 hrs old adult Nasonia virtipennis were sprayed with a sterile PBS solution (squares), S. marcescens TVIT01 (8×10^6 cells/ml, circles), or P. protegens TVIT02 (3×10^8 cells/ml, triangles) and incubated for 6 hr before being fed 100 ppm of atrazine sugar solution (A) or only sugar solution (C), and their survival was calculated 48 hrs later. Three replicates of 50 individuals are for each treated group (Two-tailed t test, *P<0.05).
Toxicity experiments were conducted at a range of concentrations for both atrazine and Glyphosate to test the effect that the new microbiome has on increasing resistance. 50 adults (24 hr old) were put into vials from either the generationally-atrazine exposed populations or the naïve populations and exposed to atrazine or glyphosate at parts per million concentrations of 0 ppm, 10 ppm, 30 ppm, 100 ppm, 200 ppm, 400 ppm, 600 ppm, 800 ppm, 1000 ppm. Mortality was recorded after 0, 24, 48, 72, 96, 120, 168 hours (from atrazine exposure point). These were conducted in concurrent replicate experiments.

Nasonia [2] = assay: Atrazine toxicity in germfree, gnotobiotic Nasonia populations; type: in vivo, Nasonia virtipennis; conditions: both exposed and naïve populations, 0-30 ppb atrazine, up to 96 hr
Description: as §1
To test the role of the microbiome as a detoxicant to herbicides, both populations were tested in germfree, gnotobiotic, conditions. Survival was measured when exposed atrazine concentrations of 0, 5 ppb, 10 ppb, 15 ppb, 25 ppb, 30 ppb for up to 96 hr. […]

[3] = generationally-atrazine exposed populations

SMILES	median lethal concentration to kill half of the population (LC50) (Nasonia [1]; [3])	median lethal concentration to kill half of the population (LC50) (Nasonia [1]; naïve populations)	increase in toxicity with bacteria removed, compared to normal (Nasonia [2])
O=C(O)CNCP(=O)(O)O [Glyphosate, N-(phosphonomethyl)glycine]	315 ppm	148 ppm	
CCNc1nc(Cl)nc(NC(C)C)n1 [atrazine, Atrazine]	562 ppm	62 ppm	> 100 fold
